Assay results as given in patent US20240010640A1, “ANTAGONISTS OF THE MUSCARINIC ACETYLCHOLINE RECEPTOR M4” (Vanderbilt University, priority 2020, published 2024).

Key:
[1] = target: T1, Human M4 (Homo sapiens, UniProt P08173); test: mAChR M4 cell-based functional assay (calcium flux, antagonist mode); conditions: for IC50: Human M4/Gqi5 CHO-K1 cells, decrease of acetylcholine response; for Emin (% ACh maximum at 30 μM): Human M4
T1 construct: Human or rat M4 cDNA, along with the chimeric G protein Gqi5, were transfected into Chinese hamster ovary (CHO-K1) cells; expressed in transfected cells; host or cells: CHO-K1 (Chinese hamster ovary, ATCC), stably expressing M4 and Gqi5
T1 sequence (P08173 1-479): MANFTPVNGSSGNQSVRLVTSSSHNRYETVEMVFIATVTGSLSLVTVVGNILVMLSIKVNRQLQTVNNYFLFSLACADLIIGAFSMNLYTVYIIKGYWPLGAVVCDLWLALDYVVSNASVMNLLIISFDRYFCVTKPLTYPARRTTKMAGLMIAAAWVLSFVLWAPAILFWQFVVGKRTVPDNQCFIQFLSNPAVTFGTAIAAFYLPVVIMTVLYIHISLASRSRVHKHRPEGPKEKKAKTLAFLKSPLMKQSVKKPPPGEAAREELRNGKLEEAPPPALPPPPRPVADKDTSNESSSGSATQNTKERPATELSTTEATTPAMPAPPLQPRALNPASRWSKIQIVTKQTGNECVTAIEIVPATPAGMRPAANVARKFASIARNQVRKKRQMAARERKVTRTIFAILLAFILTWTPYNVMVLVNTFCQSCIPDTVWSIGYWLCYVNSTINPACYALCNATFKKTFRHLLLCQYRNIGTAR
Method: Human or rat M4 cDNA, along with the chimeric G protein Gqi5, were transfected into Chinese hamster ovary (CHO-K1) cells purchased from the American Type Culture Collection using Lipofectamine2000. M4/Gqi5/CHO cells were grown in Ham's F-12 medium containing 10% heat-inactivated fetal bovine serum (FBS), 20 mM HEPES, 500 μg/mL G418 sulfate, and 200 μg/mL Hygromycin B.
For high throughput measurement of agonist-evoked increases in intracellular calcium, CHO-K1 cells stably expressing muscarinic receptors were plated in growth medium lacking G418 and hygromycin at 15,000 cells/20 μL/well in Greiner 384-well black-walled, tissue culture (TC)-treated, clear-bottom plates (VWR). Cells were incubated overnight at 37° C. and 5% CO2. The next day, cells were washed using an ELX 405 (BioTek) with assay buffer; the final volume was then aspirated to 20 μL. Next, 20 μL of a 2.3 μM stock of Fluo-4/acetoxymethyl ester (Invitrogen, Carlsbad, CA), prepared as a 2.3 mM stock in DMSO and mixed in a 1:1 ratio with 10% (w/v) Pluronic F-127 and diluted in assay buffer, was added to the wells and the cell plates were incubated for 50 min at 37° C. and 5% CO2. Dye was removed by washing with the ELX 405 and the final volume was aspirated to 20 μL. Compound master plates were formatted in a 10 point concentration-response curve (CRC) format (1:3 dilutions) in 100% DMSO with a starting concentration of 10 or 1 mM using a BRAVO liquid handler (Agilent). Test compound CRCs were then transferred to daughter plates (240 nL) using the Echo acoustic plate reformatter (Labcyte, Sunnyvale, CA) and then diluted into assay buffer (40 μL) to a 2× stock using a Thermo Fisher Combi (Thermo Fisher Scientific, Waltham, MA).
Calcium flux was measured using the Functional Drug Screening System (FDSS) 6000 or 7000 (Hamamatsu Corporation, Tokyo, Japan) as an increase in the fluorescent static ratio. Compounds were applied to cells (20 μL, 2×) using the automated system of the FDSS at 2 seconds into the protocol and the data were collected at 1 Hz. At 143 s, 10 μL of an EC20 concentration of the muscarinic receptor agonist acetylcholine was added (5×), followed by the addition of 12 μL of an […] concentration of acetylcholine at the 268 s time point (5×). Agonist activity was analyzed as a concentration-dependent increase in calcium mobilization upon compound addition. Positive allosteric modulator activity was analyzed as a concentration-dependent increase in the EC20 acetylcholine response. Antagonist activity was analyzed as a concentration-dependent decrease in the EC80 acetylcholine response; for the purposes of the tables herein, an IC50 (inhibitory concentration 50) was calculated as a concentration-dependent decrease of the response elicited by an […] concentration of acetylcholine. Concentration-response curves were generated using a four-parameter logistical equation in XLFit curve fitting software (IDBS, Bridgewater, NJ) for Excel (Microsoft, Redmond, WA) or Prism (GraphPad Software, Inc., San Diego, CA) or the Dotmatics software platform (Dotmatics, Bishop's Stortford, UK).
Compounds were synthesized as described above. Activity (IC50 and Emin) was determined in the mAChR M4 cell-based functional assay as described above and the data are shown in Table 1.

[2] = tested on: M4 knockout mice; conditions: but not the other four mAChR subtypes; cited from earlier work
[3] = tested on: catalepsy induced by the DA receptor antagonist haloperidol; conditions: cited from earlier work

Compound | IC50 [1] [µM] | Emin (% ACh maximum at 30 μM) [1] [%] | locomotor-activating effects [2] | reduction of haloperidol-induced catalepsy ([3]; M4 KO mice) | reversal of haloperidol-induced catalepsy ([3]; WT mice)
[2H]C([2H])(C1CCOCC1)N1C[C@H]2C[C@H](Nc3ccc(-c4cc(F)c(=O)n(C)c4)nn3)C[C@H]2C1 [A18, 3-fluoro-1-methyl-5-(6-(((3aR,5s,6aS)-2-((tetrahydro-2H-pyran-4-yl)methyl-d2)octahydrocyclopenta[c]pyrrol-5-yl)amino)pyridazin-3-yl)pyridin-2(1H)-one] | 0.0114 | 4 | – | – | –
Cn1cccc(-c2cnc(N[C@H]3C[C@@H]4CN(CC5CCOCC5)C[C@@H]4C3)nc2)c1=O [B1, 1-methyl-3-(2-(((3aR,5s,6aS)-2-((tetrahydro-2H-pyran-4-yl)methyl)octahydrocyclopenta[c]pyrrol-5-yl)amino)pyrimidin-5-yl)pyridin-2(1H)-one] | 3.37 | 10 | – | – | –
CN1[C@@H]2C[C@@H](OC(=O)[C@H](CO)c3ccccc3)C[C@H]1[C@@H]1O[C@@H]12 [scopolamine] | – | – | dramatically reduced | ineffective | completely reversed
